Results from publication PMC9599254, “Human Milk Oligosaccharide Utilization in Intestinal Bifidobacteria Is Governed by Global Transcriptional Regulator NagR” (mSystems, 2022).

Legend:
NagR = biological target: T1, NagR (Bifidobacterium longum, UniProt A0ACD7UQ49); assay: EMSA, disruption of NagR-DNA complex; format: binding; conditions: 25 nM NagR, 1 nM IRD700-labelled hmoA operator probe; pH 7.5, 50 mM KCl, 5 mM MgCl2, room temperature; effector releasing DNA
T1 construct: gene BLIJ_0896; full-length as described, N-terminal His tag, codon-optimized synthetic gene in in-house pET-49b(+), expressed in E. coli BL21(DE3), Ni-NTA purified; tag removal not mentioned
T1 sequence (A0ACD7UQ49 36-409 limits assumed): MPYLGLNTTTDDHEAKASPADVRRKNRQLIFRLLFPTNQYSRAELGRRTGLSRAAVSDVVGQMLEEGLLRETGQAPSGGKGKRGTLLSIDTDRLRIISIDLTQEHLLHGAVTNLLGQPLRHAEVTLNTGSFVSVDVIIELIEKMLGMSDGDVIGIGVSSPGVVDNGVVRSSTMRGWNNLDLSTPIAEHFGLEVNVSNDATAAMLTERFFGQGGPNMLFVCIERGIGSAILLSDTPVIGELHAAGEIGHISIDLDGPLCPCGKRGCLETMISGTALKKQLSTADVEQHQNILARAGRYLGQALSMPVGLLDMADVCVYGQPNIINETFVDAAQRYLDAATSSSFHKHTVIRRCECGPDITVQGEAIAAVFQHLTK

[1] = tested on: NagR (Bifidobacterium longum subsp. infantis ATCC 15697 (= JCM 1222)); assay: EMSA; conditions: no robust shift even at >500 nM NagR; 10 mM Tris-HCl pH 7.5, 50 mM KCl, 5 mM MgCl2, 2.25 mM DTT, 0.125% Tween 20, 2.5% glycerol; 1 nM probe, 0-2000 nM NagR, 60 min, room temperature; 6% gel, 0.5x …

CC(=O)N[C@H]1[C@@H](OP(=O)(O)O)O[C@H](CO)[C@@H](O)[C@@H]1O [GlcNAc-1P]
EC50 (NagR): 490 ± 60 µM

CC(=O)N[C@H]1C(O)O[C@H](CO)[C@@H](O)[C@@H]1O (stereo partly shown) [GlcNAc]
EC50 (NagR): 330 ± 50 µM

ATTTCGTCGTTGAAATTGTTATGAAACTTCACCAATAAATTCCAGTGTA (double strand) [nagB_II probe]
K half [1]: > 500 nM

GGGCCTGATGCAAATATGTTAAGGCTGTTGACAGTGCTGGCTCCCGTAC (double strand) [hmoA6 probe]
K half [1]: > 500 nM
